Reference: PMC3771683 (Analytical chemistry, 2013)

Legend:
[1] = tested on: Mapk, Akt, and Rps6ka1 kinases; assay type: cell-based; conditions: MCF 10A cells treated with EGF or lapatinib vs DMSO; Western blotting and KAYAK
[2] = molecular target: T1, Tp53rk (Homo sapiens, UniProt Q96S44); assay: AAP protein-level capture with TMT, staurosporine competition in HeLa lysate; assay type: binding
T1 sequence (Q96S44 1-253): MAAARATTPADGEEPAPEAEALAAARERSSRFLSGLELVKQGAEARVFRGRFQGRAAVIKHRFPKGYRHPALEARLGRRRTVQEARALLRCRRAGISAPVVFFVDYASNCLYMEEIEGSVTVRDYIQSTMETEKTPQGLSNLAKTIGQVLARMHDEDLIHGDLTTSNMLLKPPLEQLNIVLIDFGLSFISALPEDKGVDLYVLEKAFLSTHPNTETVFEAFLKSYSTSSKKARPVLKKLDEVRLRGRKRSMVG

Row | Compound | activation of Mapk, Akt, and Rps6ka1 kinases [1] | IC50 [2] [µM]
1 | CS(=O)(=O)CCNCc1ccc(-c2ccc3ncnc(Nc4ccc(OCc5cccc(F)c5)c(Cl)c4)c3c2)o1 [lapatinib] | inhibition when lapatinib was present | 
2 | CN[C@@H]1C[C@H]2O[C@@](C)([C@@H]1OC)n1c3ccccc3c3c4c(c5c6ccccc6n2c5c31)C(=O)NC4 [staurosporine] |  | 73
3 | EGF: stimulates EGFR and numerous downstream kinases | substantial activation | 
